Data as given in US10626093B2, “Polymorphic form of crystalline rosuvastatin calcium and novel processes for crystalline as well as amorphous rosuvastatin calcium” (MOREPEN LABORATORIES LIMITED, priority 2016, dated 2020).

Experiments:
[1] = Stability study of Rosuvastatin calcium form M (30° C./65% RH and 40° C./75% RH); type: physicochemical
Description: According to one more aspect of current invention, the form M is stable at 30° C. with 65% RH for 48 months & 40° C. with 75% RH for 6 months for all ICH/EP/USP grade.

[2] = Stability study of Rosuvastatin calcium form M2 (plant batches, RT); type: physicochemical
Description: According to still another embodiment of current invention, The form M2 is stable at 30° C. with 65% RH for 24 months & 40° C. with 75% RH for 6 months for all ICH/EP/USP grade.

[3] = 40° C. with 75% RH for 6 months

Question: Which Stability ([1]; 30° C. with 65% RH for 48 months) does the source give for “7-[4-(4-flurophenyl)-6-isopropyl-2-(N-methyl-N-methylsulfonylamino)-pyrimidin-5-yl]-(3R,5S)-dihydroxy-hept-6-enoic acid Calcium salt [form M]” here?
Answer: stable

Question: What about the “Assay (OAB)” value ([1]; 30° C./65% RH, 3 months) of the same substance?
Answer: 99.58 % w/w

Question: What about the Description ([1]; 30° C./65% RH, 3 months) of the same substance?
Answer: A white

Question: What about the “Related Substances (HPLC) Individual Unknown Imp.” value ([1]; 30° C./65% RH, 3 months) of the same substance?
Answer: 0.02%

Question: And the “Related Substances (HPLC) Lactone” value ([1]; 30° C./65% RH, 3 months)?
Answer: 0.05%

Question: What about the “Related Substances (HPLC) RT-07” value ([1]; 30° C./65% RH, 3 months) of the same substance?
Answer: 0.05%

Question: What about the “Related Substances (HPLC) Total Imp.” value ([1]; 30° C./65% RH, 3 months) of the same substance?
Answer: 0.16%

Question: What about the Water ([1]; 30° C./65% RH, 3 months) of the same substance?
Answer: 5.30%

Question: What about the “Assay (OAB)” value ([1]; 30° C./65% RH, 6 months) of the same substance?
Answer: 99.54 % w/w

Question: What about the Description ([1]; 30° C./65% RH, 6 months) of the same substance?
Answer: A white

Question: And the “Related Substances (HPLC) Individual Unknown Imp.” value ([1]; 30° C./65% RH, 6 months)?
Answer: 0.04%

Question: And the “Related Substances (HPLC) Lactone” value ([1]; 30° C./65% RH, 6 months)?
Answer: 0.04%

Question: What about the “Related Substances (HPLC) RT-07” value ([1]; 30° C./65% RH, 6 months) of the same substance?
Answer: 0.05%

Question: What about the “Related Substances (HPLC) Total Imp.” value ([1]; 30° C./65% RH, 6 months) of the same substance?
Answer: 0.14%

Question: And the Water ([1]; 30° C./65% RH, 6 months)?
Answer: 5.43%

Question: And the “Assay (OAB)” value ([1]; 30° C./65% RH, 9 months)?
Answer: 99.33 % w/w

Question: What about the Description ([1]; 30° C./65% RH, 9 months) of the same substance?
Answer: A white

Question: And the “Related Substances (HPLC) Individual Unknown Imp.” value ([1]; 30° C./65% RH, 9 months)?
Answer: 0.02%

Question: And the “Related Substances (HPLC) Lactone” value ([1]; 30° C./65% RH, 9 months)?
Answer: 0.04%

Question: And the “Related Substances (HPLC) RT-07” value ([1]; 30° C./65% RH, 9 months)?
Answer: 0.05%

Question: What about the “Related Substances (HPLC) Total Imp.” value ([1]; 30° C./65% RH, 9 months) of the same substance?
Answer: 0.14%

Question: And the Water ([1]; 30° C./65% RH, 9 months)?
Answer: 5.44%

Question: And the “Assay (OAB)” value ([1]; 30° C./65% RH, 12 months)?
Answer: 99.55 % w/w

Question: And the Description ([1]; 30° C./65% RH, 12 months)?
Answer: A white

Question: What about the “Related Substances (HPLC) Anti-Isomer” value ([1]; 30° C./65% RH, 12 months) of the same substance?
Answer: 0.04%

Question: And the “Related Substances (HPLC) Individual Unknown Imp.” value ([1]; 30° C./65% RH, 12 months)?
Answer: 0.02%

Question: And the “Related Substances (HPLC) Lactone” value ([1]; 30° C./65% RH, 12 months)?
Answer: 0.05%

Question: And the “Related Substances (HPLC) RT-07” value ([1]; 30° C./65% RH, 12 months)?
Answer: 0.06%

Question: What about the “Related Substances (HPLC) Total Imp.” value ([1]; 30° C./65% RH, 12 months) of the same substance?
Answer: 0.17%

Question: What about the Water ([1]; 30° C./65% RH, 12 months) of the same substance?
Answer: 5.55%

Question: And the “Assay (OAB)” value ([1]; 30° C./65% RH, 18 months)?
Answer: 99.70 % w/w

Question: And the Description ([1]; 30° C./65% RH, 18 months)?
Answer: A white

Question: And the “Related Substances (HPLC) Anti-Isomer” value ([1]; 30° C./65% RH, 18 months)?
Answer: 0.03%

Question: What about the “Related Substances (HPLC) Individual Unknown Imp.” value ([1]; 30° C./65% RH, 18 months) of the same substance?
Answer: 0.02%

Question: What about the “Related Substances (HPLC) Lactone” value ([1]; 30° C./65% RH, 18 months) of the same substance?
Answer: 0.04%

Question: And the “Related Substances (HPLC) RT-07” value ([1]; 30° C./65% RH, 18 months)?
Answer: 0.05%

Question: What about the “Related Substances (HPLC) Total Imp.” value ([1]; 30° C./65% RH, 18 months) of the same substance?
Answer: 0.16%

Question: What about the Water ([1]; 30° C./65% RH, 18 months) of the same substance?
Answer: 5.57%

Question: What about the “Assay (OAB)” value ([1]; 30° C./65% RH, 24 months) of the same substance?
Answer: 99.81 % w/w

Question: And the Description ([1]; 30° C./65% RH, 24 months)?
Answer: A white

Question: What about the “Related Substances (HPLC) Anti-Isomer” value ([1]; 30° C./65% RH, 24 months) of the same substance?
Answer: 0.04%

Question: What about the “Related Substances (HPLC) Individual Unknown Imp.” value ([1]; 30° C./65% RH, 24 months) of the same substance?
Answer: 0.02%

Question: And the “Related Substances (HPLC) Lactone” value ([1]; 30° C./65% RH, 24 months)?
Answer: 0.04%

Question: What about the “Related Substances (HPLC) RT-07” value ([1]; 30° C./65% RH, 24 months) of the same substance?
Answer: 0.05%

Question: And the “Related Substances (HPLC) Total Imp.” value ([1]; 30° C./65% RH, 24 months)?
Answer: 0.15%

Question: What about the Water ([1]; 30° C./65% RH, 24 months) of the same substance?
Answer: 5.72%

Question: What about the “Assay (OAB)” value ([1]; 30° C./65% RH, 36 months) of the same substance?
Answer: 99.75 % w/w

Question: What about the Description ([1]; 30° C./65% RH, 36 months) of the same substance?
Answer: A white

Question: What about the “Related Substances (HPLC) Anti-Isomer” value ([1]; 30° C./65% RH, 36 months) of the same substance?
Answer: 0.04%

Question: What about the “Related Substances (HPLC) Individual Unknown Imp.” value ([1]; 30° C./65% RH, 36 months) of the same substance?
Answer: 0.02%

Question: What about the “Related Substances (HPLC) Lactone” value ([1]; 30° C./65% RH, 36 months) of the same substance?
Answer: 0.04%

Question: And the “Related Substances (HPLC) RT-07” value ([1]; 30° C./65% RH, 36 months)?
Answer: 0.05%

Question: What about the “Related Substances (HPLC) Total Imp.” value ([1]; 30° C./65% RH, 36 months) of the same substance?
Answer: 0.16%

Question: What about the Water ([1]; 30° C./65% RH, 36 months) of the same substance?
Answer: 5.74%

Question: What about the “Assay (OAB)” value ([1]; 30° C./65% RH, 48 months) of the same substance?
Answer: 99.66 % w/w

Question: What about the Description ([1]; 30° C./65% RH, 48 months) of the same substance?
Answer: A white

Question: And the “Related Substances (HPLC) Anti-Isomer” value ([1]; 30° C./65% RH, 48 months)?
Answer: 0.05%

Question: What about the “Related Substances (HPLC) Individual Unknown Imp.” value ([1]; 30° C./65% RH, 48 months) of the same substance?
Answer: 0.02%

Question: And the “Related Substances (HPLC) Lactone” value ([1]; 30° C./65% RH, 48 months)?
Answer: 0.04%

Question: And the “Related Substances (HPLC) RT-07” value ([1]; 30° C./65% RH, 48 months)?
Answer: 0.05%

Question: What about the “Related Substances (HPLC) Total Imp.” value ([1]; 30° C./65% RH, 48 months) of the same substance?
Answer: 0.16%

Question: What about the Water ([1]; 30° C./65% RH, 48 months) of the same substance?
Answer: 5.90%

Question: What about the Stability [1, 3] of the same substance?
Answer: stable

Question: And the “Assay (OAB)” value ([1]; 40° C./75% RH, 1 month)?
Answer: 100.03 % w/w

Question: And the Description ([1]; 40° C./75% RH, 1 month)?
Answer: A white

Question: What about the “Related Substances (HPLC) Individual Unknown Imp.” value ([1]; 40° C./75% RH, 1 month) of the same substance?
Answer: 0.03%

Question: What about the “Related Substances (HPLC) Lactone” value ([1]; 40° C./75% RH, 1 month) of the same substance?
Answer: 0.04%

Question: What about the “Related Substances (HPLC) RT-07” value ([1]; 40° C./75% RH, 1 month) of the same substance?
Answer: 0.05%

Question: What about the “Related Substances (HPLC) Total Imp.” value ([1]; 40° C./75% RH, 1 month) of the same substance?
Answer: 0.14%

Question: And the Water ([1]; 40° C./75% RH, 1 month)?
Answer: 5.65%

Question: And the “Assay (OAB)” value ([1]; 40° C./75% RH, 2 months)?
Answer: 99.93 % w/w

Question: And the Description ([1]; 40° C./75% RH, 2 months)?
Answer: A white

Question: And the “Related Substances (HPLC) Individual Unknown Imp.” value ([1]; 40° C./75% RH, 2 months)?
Answer: 0.02%

Question: What about the “Related Substances (HPLC) Lactone” value ([1]; 40° C./75% RH, 2 months) of the same substance?
Answer: 0.04%

Question: And the “Related Substances (HPLC) RT-07” value ([1]; 40° C./75% RH, 2 months)?
Answer: 0.05%

Question: What about the “Related Substances (HPLC) Total Imp.” value ([1]; 40° C./75% RH, 2 months) of the same substance?
Answer: 0.15%

Question: And the Water ([1]; 40° C./75% RH, 2 months)?
Answer: 5.59%

Question: And the “Assay (OAB)” value ([1]; 40° C./75% RH, 3 months)?
Answer: 100.03 % w/w

Question: And the Description ([1]; 40° C./75% RH, 3 months)?
Answer: A white

Question: What about the “Related Substances (HPLC) Individual Unknown Imp.” value ([1]; 40° C./75% RH, 3 months) of the same substance?
Answer: 0.02%

Question: What about the “Related Substances (HPLC) Lactone” value ([1]; 40° C./75% RH, 3 months) of the same substance?
Answer: 0.04%

Question: What about the “Related Substances (HPLC) RT-07” value ([1]; 40° C./75% RH, 3 months) of the same substance?
Answer: 0.05%

Question: And the “Related Substances (HPLC) Total Imp.” value ([1]; 40° C./75% RH, 3 months)?
Answer: 0.13%

Question: And the Water ([1]; 40° C./75% RH, 3 months)?
Answer: 5.66%

Question: And the “Assay (OAB)” value ([1]; 40° C./75% RH, 6 months)?
Answer: 99.59 % w/w

Question: What about the Description ([1]; 40° C./75% RH, 6 months) of the same substance?
Answer: A white

Question: What about the “Related Substances (HPLC) Individual Unknown Imp.” value ([1]; 40° C./75% RH, 6 months) of the same substance?
Answer: 0.02%

Question: What about the “Related Substances (HPLC) Lactone” value ([1]; 40° C./75% RH, 6 months) of the same substance?
Answer: 0.04%

Question: What about the “Related Substances (HPLC) RT-07” value ([1]; 40° C./75% RH, 6 months) of the same substance?
Answer: 0.04%

Question: And the “Related Substances (HPLC) Total Imp.” value ([1]; 40° C./75% RH, 6 months)?
Answer: 0.12%

Question: And the Water ([1]; 40° C./75% RH, 6 months)?
Answer: 5.63%

Question: And the “Assay (OAB)” value ([1]; Initial)?
Answer: 100.08 % w/w

Question: What about the Description ([1]; Initial) of the same substance?
Answer: A white

Question: What about the “Related Substances (HPLC) Individual Unknown Imp.” value ([1]; Initial) of the same substance?
Answer: 0.02%

Question: And the “Related Substances (HPLC) Lactone” value ([1]; Initial)?
Answer: 0.02%

Question: What about the “Related Substances (HPLC) RT-07” value ([1]; Initial) of the same substance?
Answer: 0.05%

Question: What about the “Related Substances (HPLC) Total Imp.” value ([1]; Initial) of the same substance?
Answer: 0.13%

Question: And the Water ([1]; Initial)?
Answer: 5.06%

Question: With “7-[4-(4-flurophenyl)-6-isopropyl-2-(N-methyl-N-methyl sulfonyl amino)-pyrimidin-5-yl]-(3R,5S)-dihydroxy-hept-6-enoic acid Calcium salt [form M2]” as the substance, how does the Stability ([2]; 30° C. with 65% RH for 24 months) read?
Answer: stable

Question: What about the Stability [2, 3] of the same substance?
Answer: stable
